# Test results from patent US20260070945A1, “MACROCYCLIC IMMUNOMODULATORS” (Bristol-Myers Squibb Company, priority 2022, published 2026).
# Where a SMILES comes first, the peptide text is derived from it. Bridges are numbered along the chain shown (N, C = ends). [ ]: non-standard residue; d: D form. The star is where a group is joined. ξ: configuration not given here. Phe(3-CF3) = N[C@@H](Cc1cccc(C(F)(F)F)c1)C(=O)O; Phe(4-COOH) = N[C@@H](Cc1ccc(C(=O)O)cc1)C(=O)O; Bip = N[C@@H](Cc1ccc(-c2ccccc2)cc1)C(=O)O; Phe(4-NH2) = Nc1ccc(C[C@H](N)C(=O)O)cc1; NH(CH2)14COOH = O=C(O)CCCCCCCCCCCCCCN*; Phe(3-Me) = Cc1cccc(C[C@H](N)C(=O)O)c1; NH(CH2)12COOH = O=C(O)CCCCCCCCCCCCN*; Val(3-OH) = CC(C)(O)[C@H](N)C(=O)O; 4Pal = N[C@@H](Cc1ccncc1)C(=O)O; Cha = N[C@@H](CC1CCCCC1)C(=O)O; Cit = NC(=O)NCCC[C@H](N)C(=O)O; Ile(3ξ) = CCC(C)[C@H](N)C(=O)O; Thr(3ξ) = CC(O)[C@H](N)C(=O)O; Carboxymethyl = O=C(O)C*; NMeA = CN[C@@H](C)C(=O)O; Orn = NCCC[C@H](N)C(=O)O; Aun = NCCCCCCCCCCC(=O)O; Dab = NCC[C@H](N)C(=O)O; Dap = NC[C@H](N)C(=O)O; AEEA = NCCOCCOCC(=O)O
# Biological target: T1, PD-1/PD-L1 interaction (PE-labeled human PD-L1-Ig binding to Jurkat cell line over-expressing human PD-1) (Homo sapiens, UniProt Q15116)
# T1 construct: expressed in transfected cells; host or cells: Jurkat
# T1 sequence (Q15116 25-288): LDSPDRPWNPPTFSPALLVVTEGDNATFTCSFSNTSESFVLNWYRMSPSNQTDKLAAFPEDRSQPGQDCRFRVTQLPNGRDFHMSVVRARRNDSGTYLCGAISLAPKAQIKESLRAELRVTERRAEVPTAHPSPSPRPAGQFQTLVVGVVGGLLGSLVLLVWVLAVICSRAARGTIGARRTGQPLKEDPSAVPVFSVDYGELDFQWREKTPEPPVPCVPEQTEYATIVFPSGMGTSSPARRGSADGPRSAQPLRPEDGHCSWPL
# Assay: Jurkat-PD-1 Cell Binding High-Content Screening Assay (CBA)
# Conditions: Jurkat-hPD-1 cells, PE-labeled PD-L1-Ig 20 nM final; read-out: Jurkat HPD1 PDL1 IC50
# Summary of the method: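 Jurkat-hPD-1 cells (8×10^3/well) in DMEM with 10% fetal calf serum were preincubated with compound for 2 h at 37 °C. PE-labeled PD-L1-Ig was then added at 20 nM final for 1 h. Cells were fixed in paraformaldehyde with Hoechst 33342, washed and imaged by high-content imaging.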
row,IC50 [nM],Compound
1,9.3,Cc1cccc(C[C@@H]2NC(=O)[C@H](CC(=O)O)NC(=O)[C@H](Cc3ccc(OCC(=O)O)cc3)NC(=O)[C@H](C(C)O)NC(=O)CSC[C@@H](C(=O)N[C@@H](CCN)C(=O)NCCCCCCCCCCC(=O)O)NC(=O)[C@H](C(C)O)NC(=O)[C@H](C(C)C)NC(=O)[C@H](CC3CCCCC3)NC(=O)[C@H](CCN)NC(=O)[C@@H](CC(C)C)NC(=O)[C@H](C)N(C)C(=O)[C@H](Cc3ccc(OCC(=O)O)cc3)NC(=O)[C@H](Cc3ccc(-c4ccccc4)cc3)NC(=O)[C@H](Cc3ccc(C(=O)O)cc3)NC2=O)c1 (stereo partly drawn) [Example 2347] ({CH2CO}-[Thr(3ξ)]Y(Carboxymethyl)D[Phe(3-Me)][Phe(4-COOH)][Bip]Y(Carboxymethyl)[NMeA][dL][Dab][Cha]V[Thr(3ξ)]C[Dab][Aun]-OH; thioether N-14)
2,20,Cc1cccc(C[C@@H]2NC(=O)[C@H](CC(=O)O)NC(=O)[C@H](Cc3ccc(C(=O)O)cc3)NC(=O)[C@H](Cc3ccc(OCC(=O)O)cc3)NC(=O)CSC[C@@H](C(=O)N[C@H](CC(N)=O)C(=O)NCCCCCCCCCCC(=O)O)NC(=O)[C@H](CO)NC(=O)[C@H](C(C)C)NC(=O)[C@H](CC3CCCCC3)NC(=O)[C@H](CCN)NC(=O)[C@@H](CC(C)C)NC(=O)[C@H](C)N(C)C(=O)[C@H](C(C)C)NC(=O)[C@H](Cc3ccc(-c4ccccc4)cc3)NC(=O)[C@H](CC(C)C)NC2=O)c1 [Example 2235] ({CH2CO}-Y(Carboxymethyl)[Phe(4-COOH)]D[Phe(3-Me)]L[Bip]V[NMeA][dL][Dab][Cha]VSC[dN][Aun]-OH; thioether N-14)

# Second part, the molecule before the results:
row,Compound,IC50 [nM]
1,Cc1cccc(C[C@@H]2NC(=O)[C@H](CC(=O)O)NC(=O)[C@H](Cc3ccc(OCC(=O)O)cc3)NC(=O)[C@H](CCN)NC(=O)CSC[C@@H](C(=O)N[C@@H](CCN)C(=O)NCCCCCCCCCCC(=O)O)NC(=O)[C@H](CO)NC(=O)[C@H](C(C)(C)O)NC(=O)[C@H](CC3CCCCC3)NC(=O)[C@H](CCN)NC(=O)[C@@H](CC(C)C)NC(=O)[C@H](C)N(C)C(=O)[C@H](Cc3ccc(OCC(=O)O)cc3)NC(=O)[C@H](Cc3ccc(-c4ccccc4)cc3)NC(=O)[C@H](Cc3ccc(N)cc3)NC2=O)c1 [Example 1307] ({CH2CO}-[Dab]Y(Carboxymethyl)D[Phe(3-Me)][Phe(4-NH2)][Bip]Y(Carboxymethyl)[NMeA][dL][Dab][Cha][Val(3-OH)]SC[Dab][Aun]-OH; thioether N-14),41.3
2,CCC(C)[C@@H]1NC(=O)[C@H](Cc2ccc(-c3ccccc3)cc2)NC(=O)[C@H](CC(C)C)NC(=O)[C@H](Cc2cccc(C)c2)NC(=O)[C@H](CC(=O)O)NC(=O)[C@H](Cc2ccc(OCC(=O)O)cc2)NC(=O)[C@H](Cc2ccncc2)NC(=O)CSC[C@@H](C(=O)N[C@@H](CCCN)C(=O)NCCOCCOCC(=O)NCCCCCCCCCCC(=O)O)NC(=O)[C@H](C(C)O)NC(=O)[C@H](C(C)C)NC(=O)[C@H](CC2CCCCC2)NC(=O)[C@H](CCN)NC(=O)[C@@H](CC(C)C)NC(=O)[C@H](C)N(C)C1=O (stereo partly drawn) [Example 2088] ({CH2CO}-[4Pal]Y(Carboxymethyl)D[Phe(3-Me)]L[Bip][Ile(3ξ)][NMeA][dL][Dab][Cha]V[Thr(3ξ)]C[Orn][AEEA][Aun]-OH; thioether N-14),12.8
3,Cc1cccc(C[C@@H]2NC(=O)[C@H](CC(=O)O)NC(=O)[C@H](Cc3ccc(OCC(=O)O)cc3)NC(=O)[C@H](Cc3ccc(OCC(=O)O)cc3)NC(=O)CSC[C@@H](C(=O)N[C@@H](CCN)C(=O)NCCCCCCCCCCC(=O)O)NC(=O)[C@H]([C@@H](C)O)NC(=O)[C@H](C(C)C)NC(=O)[C@H](CC3CCCCC3)NC(=O)[C@H](CCN)NC(=O)[C@@H](CC(C)C)NC(=O)[C@H](C)N(C)C(=O)[C@H](Cc3ccc(OCC(=O)O)cc3)NC(=O)[C@H](Cc3ccc(-c4ccccc4)cc3)NC(=O)[C@H](C(C)C)NC2=O)c1 [Example 1264] ({CH2CO}-Y(Carboxymethyl)Y(Carboxymethyl)D[Phe(3-Me)]V[Bip]Y(Carboxymethyl)[NMeA][dL][Dab][Cha]VTC[Dab][Aun]-OH; thioether N-14),31.8
4,COC[C@@H]1NC(=O)CSC[C@@H](C(=O)N[C@@H](CCN)C(=O)NCCCCCCCCCCCCC(=O)O)NC(=O)[C@H](CO)NC(=O)[C@H](C(C)(C)O)NC(=O)[C@H](CC2CCCCC2)NC(=O)[C@H](CCN)NC(=O)[C@@H](CC(C)C)NC(=O)[C@H](C)N(C)C(=O)[C@H](CCCNC(N)=O)NC(=O)[C@H](Cc2ccc(-c3ccccc3)cc2)NC(=O)[C@H](Cc2ccc(C(=O)O)cc2)NC(=O)[C@H](Cc2cccc(C(F)(F)F)c2)NC(=O)[C@H](CC(=O)O)NC(=O)[C@H](Cc2ccc(OCC(=O)O)cc2)NC1=O [Example 1140] ({CH2CO}-S(Me)Y(Carboxymethyl)D[Phe(3-CF3)][Phe(4-COOH)][Bip][Cit][NMeA][dL][Dab][Cha][Val(3-OH)]SC[Dab]-{NH(CH2)12COOH}; thioether N-14),25.4
5,CC(C)C[C@@H]1NC(=O)[C@H](Cc2c[nH]c3ccccc23)NC(=O)[C@H](CC(=O)O)NC(=O)[C@H](Cc2ccncc2)NC(=O)[C@H](Cc2ccc(OCC(=O)O)cc2)NC(=O)CSC[C@@H](C(=O)N[C@@H](CCCN)C(=O)NCCCCCCCCCCC(=O)O)NC(=O)[C@H](CO)NC(=O)[C@H](C(C)C)NC(=O)[C@H](CC2CCCCC2)NC(=O)[C@H](CCN)NC(=O)[C@@H](CC(C)C)NC(=O)[C@H](C)N(C)C(=O)[C@H](C(C)C)NC(=O)[C@H](Cc2ccc(-c3ccccc3)cc2)NC1=O [Example 1084] ({CH2CO}-Y(Carboxymethyl)[4Pal]DWL[Bip]V[NMeA][dL][Dab][Cha]VSC[Orn][Aun]-OH; thioether N-14),20.9
6,CC(C)C[C@@H]1NC(=O)[C@H](Cc2c[nH]c3ccccc23)NC(=O)[C@H](CC(=O)O)NC(=O)[C@H](Cc2ccc(C(=O)O)cc2)NC(=O)[C@H](Cc2ccc(OCC(=O)O)cc2)NC(=O)CSC[C@@H](C(=O)NCCOCCOCC(=O)NCCCCCCCCCCC(=O)O)NC(=O)[C@H](CN)NC(=O)[C@H](C(C)C)NC(=O)[C@H](CC2CCCCC2)NC(=O)[C@H](CCN)NC(=O)[C@@H](CC(C)C)NC(=O)[C@H](C)N(C)C(=O)[C@H](C(C)C)NC(=O)[C@H](Cc2ccc(-c3ccccc3)cc2)NC1=O [Example 1093] ({CH2CO}-Y(Carboxymethyl)[Phe(4-COOH)]DWL[Bip]V[NMeA][dL][Dab][Cha]V[Dap]C[AEEA][Aun]-OH; thioether N-14),14.6
7,Cc1cccc(C[C@@H]2NC(=O)[C@H](CC(=O)O)NC(=O)[C@H](Cc3ccc(OCC(=O)O)cc3)NC(=O)[C@H]([C@@H](C)O)NC(=O)CSC[C@@H](C(=O)N[C@@H](CCN)C(=O)NCCOCCOCC(=O)NCCCCCCCCCCC(=O)O)NC(=O)[C@H](CCCN)NC(=O)[C@H](C(C)C)NC(=O)[C@H](CC3CCCCC3)NC(=O)[C@H](CC(N)=O)NC(=O)[C@@H](CC(C)C)NC(=O)[C@H](C)N(C)C(=O)[C@H](Cc3ccc(OCC(=O)O)cc3)NC(=O)[C@H](Cc3ccc(-c4ccccc4)cc3)NC(=O)[C@H](Cc3ccc(OCC(=O)O)cc3)NC2=O)c1 [Example 1363] ({CH2CO}-TY(Carboxymethyl)D[Phe(3-Me)]Y(Carboxymethyl)[Bip]Y(Carboxymethyl)[NMeA][dL]N[Cha]V[Orn]C[Dab][AEEA][Aun]-OH; thioether N-14),25.3
8,Cc1cccc(C[C@@H]2NC(=O)[C@H](CC(=O)O)NC(=O)[C@H](Cc3ccc(C(=O)O)cc3)NC(=O)[C@H]([C@@H](C)O)NC(=O)CSC[C@@H](C(=O)N[C@@H](CCN)C(=O)NCCOCCOCC(=O)NCCOCCOCC(=O)NCCCCCCCCCCCCCCC(=O)O)NC(=O)[C@H](CCC(=O)O)NC(=O)[C@H](C(C)(C)O)NC(=O)[C@H](CC3CCCCC3)NC(=O)[C@H](CCN)NC(=O)[C@@H](CC(C)C)NC(=O)[C@H](C)N(C)C(=O)[C@H](Cc3ccc(C(=O)O)cc3)NC(=O)[C@H](Cc3ccc(-c4ccccc4)cc3)NC(=O)[C@H](Cc3ccc(C(=O)O)cc3)NC2=O)c1 [Example 1431] ({CH2CO}-T[Phe(4-COOH)]D[Phe(3-Me)][Phe(4-COOH)][Bip][Phe(4-COOH)][NMeA][dL][Dab][Cha][Val(3-OH)]EC[Dab][AEEA][AEEA]-{NH(CH2)14COOH}; thioether N-14),962

# Same assay, conditions: PE-labeled PD-L1-Ig 20 nM final, Jurkat-hPD-1 cells; read-out: Jurkat HPD1 PDL1 IC50
row,IC50 [nM],Compound
1,9.2,CC(C)C[C@H]1NC(=O)[C@H](C)N(C)C(=O)[C@H](CCC(N)=O)NC(=O)[C@H](Cc2ccc(-c3ccccc3)cc2)NC(=O)[C@H](C(C)C)NC(=O)[C@H](Cc2c[nH]c3ccccc23)NC(=O)[C@H](CC(=O)O)NC(=O)[C@H](Cc2ccc(OCC(=O)O)cc2)NC(=O)[C@H](Cc2ccncc2)NC(=O)CSC[C@@H](C(=O)N[C@@H](CCN)C(=O)NCCOCCOCC(=O)NCCCCCCCCCCC(=O)O)NC(=O)[C@H](CCC(=O)O)NC(=O)[C@H](C(C)(C)O)NC(=O)[C@H](CC2CCCCC2)NC(=O)[C@H](CCN)NC1=O [Example 2494] ({CH2CO}-[4Pal]Y(Carboxymethyl)DWV[Bip]Q[NMeA][dL][Dab][Cha][Val(3-OH)]EC[Dab][AEEA][Aun]-OH; thioether N-14)
2,78,Cc1cccc(C[C@@H]2NC(=O)[C@H](CC(=O)O)NC(=O)[C@H](Cc3ccc(C(=O)O)cc3)NC(=O)[C@H](C(C)O)NC(=O)CSC[C@@H](C(=O)N[C@@H](CCCN)C(=O)NCCOCCOCC(=O)NCCCCCCCCCCC(=O)O)NC(=O)[C@H](CCC(=O)O)NC(=O)[C@H](C(C)(C)O)NC(=O)[C@H](CC3CCCCC3)NC(=O)[C@H](CCN)NC(=O)[C@@H](CC(C)C)NC(=O)[C@H](C)N(C)C(=O)[C@H](Cc3ccc(C(=O)O)cc3)NC(=O)[C@H](Cc3ccc(-c4ccccc4)cc3)NC(=O)[C@H](Cc3ccc(C(=O)O)cc3)NC2=O)c1 (stereo partly drawn) [Example 2499] ({CH2CO}-[Thr(3ξ)][Phe(4-COOH)]D[Phe(3-Me)][Phe(4-COOH)][Bip][Phe(4-COOH)][NMeA][dL][Dab][Cha][Val(3-OH)]EC[Orn][AEEA][Aun]-OH; thioether N-14)
